Results reported in the supplement of paper PMC11061612.

What was measured:
Experiment in all cases: Bliss excess, mean over the matrix (fraction); higher = more synergy
A673 (Ewing's Sarcoma) = test system: A673 (Ewing's Sarcoma)
In short: (§1)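 Bliss excess equals the observed combination effect minus the expected value EA + EB − EA·EB, where EA and EB are the effects of each agent alone. Combination Emax is the second-highest inhibition within the matrix. Inhibition was scaled from CellTiter-Glo 2.0 luminescence, with 0 set by vehicle wells and 1 by blank wells, after 72 hours of two-drug dosing of cells plated in 1536-well plates.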

[1] = test system: ALL-PO (B-Lymphoblastic Leukemia)
In short: as §1

BPH-1 (Non-Cancerous) = test system: BPH-1 (Non-Cancerous)
In short: as §1

[2] = test system: Detroit562 (Head and Neck Carcinoma)
In short: as §1

EW-11 (Ewing's Sarcoma) = test system: EW-11 (Ewing's Sarcoma)
In short: as §1

[3] = test system: FTC-133 (Thyroid Gland Carcinoma)
In short: as §1

GAMG (Glioblastoma) = test system: GAMG (Glioblastoma)
In short: as §1

[4] = test system: HH (T-Cell Non-Hodgkin's Lymphoma)
In short: as §1

[5] = test system: Hs-746T (Gastric Carcinoma)
In short: as §1

MPP-89 (Mesothelioma) = test system: MPP-89 (Mesothelioma)
In short: as §1

NCI-H2052 (Mesothelioma) = test system: NCI-H2052 (Mesothelioma)
In short: as §1

NCI-H2722 (Mesothelioma) = test system: NCI-H2722 (Mesothelioma)
In short: as §1

[6] = test system: NUGC-4 (Gastric Carcinoma)
In short: as §1

[7] = test system: SNU-16 (Gastric Carcinoma)
In short: as §1

[8] = test system: SNU-449 (Hepatocellular Carcinoma)
In short: as §1

[9] = test system: SW1573 (Lung Adenocarcinoma)
In short: as §1

[10] = test system: SW1710 (Bladder Carcinoma)
In short: as §1

[11] = test system: TGBC1TKB (Biliary Tract Carcinoma)
In short: as §1

[12] = test system: WSU-NHL (B-Cell Non-Hodgkin's Lymphoma)
In short: as §1

[13] = test system: YAPC (Pancreatic Carcinoma)
In short: as §1

Structure (SMILES)	Bliss excess (A673 (Ewing's Sarcoma))	Bliss excess [1]	Bliss excess (BPH-1 (Non-Cancerous))	Bliss excess [2]	Bliss excess (EW-11 (Ewing's Sarcoma))	Bliss excess [3]	Bliss excess (GAMG (Glioblastoma))	Bliss excess [4]	Bliss excess [5]	Bliss excess (MPP-89 (Mesothelioma))	Bliss excess (NCI-H2052 (Mesothelioma))	Bliss excess (NCI-H2722 (Mesothelioma))	Bliss excess [6]	Bliss excess [7]	Bliss excess [8]	Bliss excess [9]	Bliss excess [10]	Bliss excess [11]	Bliss excess [12]	Bliss excess [13]
COc1cccc2c1C(=O)c1c(O)c3c(c(O)c1C2=O)C[C@@](O)(C(=O)CO)C[C@@H]3O[C@H]1C[C@H](N)[C@H](O)[C@H](C)O1 [Doxorubicin] + Cc1cc2ncnn2cc1Nc1ncc2c(n1)n(C1CCOCC1)c(=O)n2C [AZD7648] (first compound max 1 µM, 7x7, partner max 10 µM)	0.0816	0.143	0.0736	0.103	0.0408	0.0917	0.0479	-0.0305	0.0464	0.0691	0.0122	0.0336	0.0402	0.0506	-0.0358	-0.0042	0.0569	-0.0247	0.0404	-0.0304
CC1(C)CCC(CN2CCN(c3ccc(C(=O)NS(=O)(=O)c4ccc(NCC5CCOCC5)c([N+](=O)[O-])c4)c(Oc4cnc5[nH]ccc5c4)c3)CC2)=C(c2ccc(Cl)cc2)C1 [Venetoclax] + C[C@@H]1COCCN1C2=NC(=NC(=C2)C3(CC3)[S@](=N)(=O)C)C4=C5C=CNC5=NC=C4 [AZD6738] (first compound max 1 µM, 7x7, partner max 10 µM)	-0.0024	0.0306	-0.0336	-0.0505	0.0321	-0.0014	-0.0727	-0.0012	-0.063	-0.0226	-0.0406	-0.0405	-0.011	-0.0218	-0.0239	-0.0705	-0.0404	-0.0517	-0.0913	-0.0303
COc1cccc(OCCCN)c1-c1cc(Nc2cnc(C#N)cn2)n[nH]1 [Prexasertib] + CCc1c2c(nc3ccc(O)cc13)-c1cc3c(c(=O)n1C2)COC(=O)[C@]3(O)CC [SN-38] (first compound max 1 µM, 7x7, partner max 0.3 µM)	-0.0105	-0.0336	0.011	0.055	-0.153	-0.0278	0.0292	0.0727	-0.0006	0.0256	-0.0138	-0.0565	-0.0568	0.0333	-0.0091	-0.0144	0.0504	0.0365	-0.0073	-0.0776
C=CCn1c(=O)c2cnc(Nc3ccc(N4CCN(C)CC4)cc3)nc2n1-c1cccc(C(C)(C)O)n1 [AZD1775] + C[C@@H]1COCCN1C2=NC(=NC(=C2)C3(CC3)[S@](=N)(=O)C)C4=C5C=CNC5=NC=C4 [AZD6738] (first compound max 1 µM, partner max 10 µM)	0.0115	0.0624	0.0614	-0.002	-0.0282	0.0508	-0.0218	0.0379	-0.0095	0.0013	-0.0197	-0.0029	-0.0701	-0.0002	-0.0061	0.0334	0.0811	0.0388	0.0013	-0.0399
COc1cccc(OCCCN)c1-c1cc(Nc2cnc(C#N)cn2)n[nH]1 [Prexasertib] + C=CCn1c(=O)c2cnc(Nc3ccc(N4CCN(C)CC4)cc3)nc2n1-c1cccc(C(C)(C)O)n1 [AZD1775] (first compound max 1 µM, partner max 1 µM)	0.0752	0.0744	0.115	0.0416	-0.0815	-0.0182	0.0606	0.0872	-0.0572	0.0912	0.0221	0.0156	0.0569	0.0756	-0.0048	0.0456	0.12	0.0068	0.0303	0.0441
Cn1cnc2c(F)c(Nc3ccc(Br)cc3Cl)c(C(=O)NOCCO)cc21 [Selumetinib] + CC(C)n1c(=O)n(C)c2cnc3cc(F)c(-c4ccc(OCCCN5CCCCC5)nc4)cc3c21 [AZD1390] (first compound max 10 µM, 7x7, partner max 0.3 µM)	-0.0481	0.0208	0.026	0.003	-0.0399	-0.034	-0.0242	-0.0536	-0.0257	-0.069	-0.0242	-0.0678	-0.0045	-0.0185	-0.0464	-0.0796	-0.059	-0.0157	-0.0059	-0.033
CC(=O)c1c(C)c2cnc(Nc3ccc(N4CCNCC4)cn3)nc2n(C2CCCC2)c1=O [Palbociclib] + CC1(C)CCC(CN2CCN(c3ccc(C(=O)NS(=O)(=O)c4ccc(NCC5CCOCC5)c([N+](=O)[O-])c4)c(Oc4cnc5[nH]ccc5c4)c3)CC2)=C(c2ccc(Cl)cc2)C1 [Venetoclax] (first compound max 10 µM, 7x7, partner max 1 µM)	-0.0426	0.169	-0.0556	0.0008	-0.0083	-0.0481	-0.0097	-0.0384	-0.0117	-0.0484	-0.0432	-0.0485	-0.0246	-0.0161	-0.0153	-0.0108	0.0152	-0.0385	-0.0137	-0.0109
CN(CCO)CC[C@H](CSc1ccccc1)Nc1ccc(S(=O)(=O)NC(=O)c2ccc(N3CCC([C@@H](O)c4ccccc4-c4ccc(Cl)cc4)CC3)cc2)cc1S(=O)(=O)C(F)(F)F [AZD4320] + C[C@@H](Nc1cc(F)cc(F)c1)c1cc(C(=O)N(C)C)cc2c(=O)cc(N3CCOCC3)oc12 [AZD8186] (first compound max 1 µM, 7x7, partner max 3 µM)	0.0149	0.0509	-0.0541	0.0261	-0.0358	0.0718	0.0337	0.012	-0.0354	0.0212	-0.0278	-0.0422	0.0385	0.0286	0.0093	-0.0169	0.0263	0.0019	-0.037	-0.0258
Cc1c2c(nn1C)CSCc1cc(n(C)n1)CSc1cc(c3ccccc3c1)OCCCc1c(C(=O)O)n(C)c3c-2c(Cl)ccc13 [AZD5991] + CC1(C)CCC(CN2CCN(c3ccc(C(=O)NS(=O)(=O)c4ccc(NCC5CCOCC5)c([N+](=O)[O-])c4)c(Oc4cnc5[nH]ccc5c4)c3)CC2)=C(c2ccc(Cl)cc2)C1 [Venetoclax] (first compound max 1 µM, 7x7, partner max 1 µM)	0.0666		-0.0148	-0.0119	0.144	-0.0233	-0.0047	0.0016	-0.0882	-0.0065	0.0269	-0.0733	-0.0621	0.0558	-0.0286	-0.0549	-0.019	-0.0252	0.0602	-0.0318
CN(C)CCCOc1ccc(-c2ccc3ncc4c(c3c2)n(C2CCOCC2)c(=O)n4C)cn1 [AZD0156] + C=CCn1c(=O)c2cnc(Nc3ccc(N4CCN(C)CC4)cc3)nc2n1-c1cccc(C(C)(C)O)n1 [AZD1775] (first compound max 1 µM, partner max 1 µM)	0.0342	0.0128	0.0475	-0.0122	-0.0426	-0.0416	-0.0429	-0.0689	-0.0305	-0.0513	-0.0554	-0.0363	-0.055	-0.0158	-0.0635	-0.0423	-0.0205	-0.0734	-0.002	-0.0575
COc1cccc(OCCCN)c1-c1cc(Nc2cnc(C#N)cn2)n[nH]1 [Prexasertib] + C[C@@H]1COCCN1C2=NC(=NC(=C2)C3(CC3)[S@](=N)(=O)C)C4=C5C=CNC5=NC=C4 [AZD6738] (first compound max 1 µM, 7x7, partner max 10 µM)	-0.014	0.0584	-0.015	-0.0311	0.0197	0.0016	0.0414	-0.0053	-0.033	-0.0232	-0.0282	-0.002	-0.0203	-0.0058	0.0134	-0.0066	0.0092	-0.0064	0.0077	0.0689
Cc1c2c(nn1C)CSCc1cc(n(C)n1)CSc1cc(c3ccccc3c1)OCCCc1c(C(=O)O)n(C)c3c-2c(Cl)ccc13 [AZD5991] + CCN(CCO)CCCOc1ccc2c(Nc3cc(CC(=O)Nc4cccc(F)c4)[nH]n3)ncnc2c1 [AZD2811] (first compound max 1 µM, 7x7, partner max 1 µM)	0.0886	-0.0077	0.0077	0.0396	0.0342	0.0074	0.0105	-0.049	-0.0477	0.0367	-0.0253	-0.0407		0.0377	-0.0041	0.0108	0.0088	-0.0141	-0.0206	-0.0037
Cc1c2c(nn1C)CSCc1cc(n(C)n1)CSc1cc(c3ccccc3c1)OCCCc1c(C(=O)O)n(C)c3c-2c(Cl)ccc13 [AZD5991] + CN(C)CCCOc1ccc(-c2ccc3ncc4c(c3c2)n(C2CCOCC2)c(=O)n4C)cn1 [AZD0156] (first compound max 1 µM, 7x7, partner max 1 µM)	0.0293	-0.0005	0.0896	-0.0251	-0.0946	-0.0105	0.0339	-0.0248	0.0008		-0.0027	-0.0302	-0.0305	0.0313	-0.0243	-0.0245	-0.0134	-0.0332	-0.0375	0.0081
CN(C)CCCOc1ccc(-c2ccc3ncc4c(c3c2)n(C2CCOCC2)c(=O)n4C)cn1 [AZD0156] + O=C(c1cc(Cc2n[nH]c(=O)c3ccccc23)ccc1F)N1CCN(C(=O)C2CC2)CC1 [Olaparib] (first compound max 3 µM, partner max 3 µM)	0.16	0.0594	0.158	0.058	0.0995		0.0515	-0.0513	0.0802	-0.0547	-0.0064	-0.017	-0.0473		-0.0344	-0.0002	-0.0233	-0.0294	0.403	0.0131
